# Columns and labels:
# MCL = conditions: ibrutinib added to CART19 therapy
# [1] = system: relapsed/refractory diffuse large B-cell lymphoma (DLBCL); assay: JULIET (NCT02445248) pivotal phase 2 trial of tisagenlecleucel in adult r/r DLBCL; assay type: in vivo, human
# Excerpt: This Example describes the JULIET (NCT02445248) clinical trial, which is a single-arm, open-label, multicenter, global, pivotal phase 2 trial of tisagenlecleucel, a chimeric antigen receptor (CAR)-T cell therapy targeting CD19, that has shown a high rate of durable complete responses (CR) and a manageable safety profile in adult patients with relapsed/refractory (r/r) diffuse large B-cell lymphoma (DLBCL). The primary objective was met at the interim analysis, with an overall response rate (ORR) of 59% (CR, 43%; partial response [PR], 16%). An updated analysis of the JULIET trial is presented herein with 19 months of follow-up, an additional 5 months since the previous report.
# The primary endpoint was ORR (CR+PR) per independent review committee. Efficacy results are reported for patients in the main cohort with ≥3 months follow-up or earlier discontinuation; safety is reported for all infused patients.
# At data cutoff (21 May 2018), 167 patients were enrolled and 115 were infused (99 with US-manufactured [main cohort] and 16 with EU-manufactured [cohort A] tisagenlecleucel) with a single dose of tisagenlecleucel (median, 3.0×10^8 [range, 0.1-6.0×10^8] CAR19-positive viable T cells). 90% of patients received bridging therapy and 93% received lymphodepleting chemotherapy. Median time from infusion to data cutoff was 19.3 months. Median age was 56 years (range, 22-76); 23% were ≥65 years. At study entry, 77% of infused patients had stage III/IV disease, 17% had double/triple hits in MYC/BCL2/BCL6. 55% and 43% had germinal center and activated B-cell molecular subtypes, respectively. 51% of patients had received ≥3 prior lines of antineoplastic therapy (range, 1-6); 49% had undergone a prior ASCT. All 99 patients in the main cohort had ≥3 months of follow-up or discontinued earlier and were evaluable for efficacy. ORR was 54% (95% CI, 43%-64%) with 40% CR and 13% PR. ORR was consistent across prognostic subgroups (including prior ASCT and double/triple-hit lymphoma) Median duration of response (DOR) was not reached; the probability of being relapse-free was 66% (95% CI, 51%-78%) at 6 months and 64% (95% CI, 48%-76%) at 12 months. DOR was similar by age group (≥ vs <65y) and by relapsed or refractory status (Figure). Median OS among all infused patients was 11.1 months (95% CI, 6.6-NE); OS probability at month 12, 48% (95% CI, 38%-57%; max follow-up, 29 months). No patients proceeded to allogeneic/ASCT while in remission.
Molecule,CART19-mediated CRS (MCL),survival of the mice (MCL),"Median OS ([1]; all infused patients, 95% CI 6.6-NE) [months]","probability of being relapse-free ([1]; at 6 months, 95% CI 51%-78%) [%]","probability of being relapse-free ([1]; at 12 months, 95% CI 48%-76%) [%]","OS probability ([1]; at month 12, 95% CI 38%-57%) [%]",CR ([1]; interim analysis) [%],overall response rate (ORR) ([1]; interim analysis) [%],partial response [PR] ([1]; interim analysis) [%],Median duration of response (DOR) ([1]; updated analysis),"ORR ([1]; updated analysis, data cutoff 21 May 2018, 99 patients main cohort, 95% CI 43%-64%) [%]","CR ([1]; updated analysis, main cohort) [%]","PR ([1]; updated analysis, main cohort) [%]"
"C=CC(=O)N1CCC[C@@H](n2nc(-c3ccc(Oc4ccccc4)cc3)c3c(N)ncnc32)C1 [ibrutinib, 1-[(3R)-3-[4-Amino-3-(4-phenoxyphenyl)-1H-pyrazolo[3,4-d]pyrimidin-1-yl]piperidin-1-yl]prop-2-en-1-one]",reduced the CART19-mediated CRS,prolonged survival,–,–,–,–,–,–,–,–,–,–,–
tisagenlecleucel,–,–,11.1,66,64,48,43,59,16,not reached,54,40,13
